Experimental data reported in US7550437B2, “Compositions for preventing and treating digestive organs diseases” (Fuso Pharmaceutical Industries, Ltd., priority 2000, dated 2009).
No end group written: not given here.

How the values were obtained:
PAR-2 = target: T1, PAR-2 (Homo sapiens, UniProt P55085); conditions: literature statement; cited from earlier work
T1 sequence (P55085 26-397): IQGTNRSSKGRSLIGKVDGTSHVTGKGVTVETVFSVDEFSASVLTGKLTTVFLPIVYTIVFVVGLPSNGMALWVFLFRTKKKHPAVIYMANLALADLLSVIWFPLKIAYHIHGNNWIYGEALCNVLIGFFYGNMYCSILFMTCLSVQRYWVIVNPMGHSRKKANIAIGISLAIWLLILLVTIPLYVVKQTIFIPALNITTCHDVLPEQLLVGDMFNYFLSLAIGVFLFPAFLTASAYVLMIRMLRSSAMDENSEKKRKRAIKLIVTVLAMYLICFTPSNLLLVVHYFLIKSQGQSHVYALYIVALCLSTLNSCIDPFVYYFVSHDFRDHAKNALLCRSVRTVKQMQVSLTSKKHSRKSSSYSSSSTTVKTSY

human PAR-1 = target: T2, human PAR-1 (Homo sapiens, UniProt P25116); conditions: literature statement; cited from earlier work
T2 sequence (P25116 22-425): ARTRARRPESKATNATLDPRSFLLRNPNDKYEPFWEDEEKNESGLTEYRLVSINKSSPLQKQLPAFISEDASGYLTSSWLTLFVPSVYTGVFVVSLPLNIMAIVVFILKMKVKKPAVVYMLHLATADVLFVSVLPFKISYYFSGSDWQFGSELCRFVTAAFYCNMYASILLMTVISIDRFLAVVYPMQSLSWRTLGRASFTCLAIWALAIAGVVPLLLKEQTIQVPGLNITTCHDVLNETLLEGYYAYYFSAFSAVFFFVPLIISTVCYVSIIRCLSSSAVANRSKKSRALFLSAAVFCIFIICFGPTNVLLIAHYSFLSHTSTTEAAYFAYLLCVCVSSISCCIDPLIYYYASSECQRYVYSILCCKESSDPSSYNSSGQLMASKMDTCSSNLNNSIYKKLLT

[1] = test system: rat gastric mucosal cells; test: Mucin secretion from rat gastric mucosal cells in vivo (galactose in gastric juice); conditions: amastatin 2.5 μmol/kg i.v., FIG. 2
Experimental: The gastric pylorus was ligated by the same procedure as described above. Amastatin (2.5 μmol/kg) was administered intravenously immediately after the ligation, and SLp-NH2, LSp-NH2 or tcLP-NH2 was administered intravenously at 1 minute after administration of amastatin. 30 minutes after ligation, the rats was exsanguinated to kill, the stomach was isolated, and the gastric juice was collected. The collected sample of gastric juice was centrifuged at 10000×g for 30 min, and the supernatant was subjected to ultrafiltration with Millipore MC FREE (MW10000), followed by lyophilization. 2M TFA was added to the lyophilized sample, which was hydrolyzed under the conditions at 100° C. for 4 hours. Centrifugal separation was then performed and the supernatant was evaporated to dryness. 200 μL of 0.1 M Tris-HCl was added to the evaporated and dried sample to dissolve it. After 150 μL of a reaction solution containing galactose oxidase (1U), peroxidase (0.5 mU) and HPPA (0.25 μmol) was added to 50 μL of the sample and the mixture was incubated at 37° C. for 30 minutes, an amount of galactose was measured at an excitation wavelength of 320 nm and an fluorescence wavelength of 405 nm.

[2] = test system: gastric acid secretion accelerated by carbachol; test: Carbachol-induced gastric acid secretion in pylorus-ligated rats; format: in vivo, rat; conditions: carbachol 60 μg/kg s.c., amastatin 2.5 μmol/kg i.v., FIG. 1
Experimental: In an experiment, male Wistar rats at 5 weeks of age were used. After each animal was pre-bred for one week under the circumstance of a room temperature of 23±2° C., the humidity of 50±5%, and the light-and-darkness cycle (light term: from 07:00 to 19:00) of 12 hours, each animal was subjected to the experiment. Water and solid feed were supplied freely during the pre-breeding period and the experiment period.
Moreover, the number of animals used in the experiment was 4-14 animals in all cases, and the results were shown by Mean±Standard Error. The significant difference test was performed by Tukey's multiple comparison test.
A rat was anesthetized with ether after 18-24 hours of fasting, and an abdomen was incised by about 1 cm below a lower end of xiphoid sternum. Duodenum was pinched out of the opened abdominal hole, a part joining pylorus and duodenum was ligated, and the incised abdomen was sutured. After 30 minutes, the rat was exsanguinated to kill, the stomach was isolated, and gastric juice was collected. After the collected gastric juice was filtered, the acidity in the gastric juice was measured by a titration method. […]

[3] = test system: lesion in gastric mucosa by hydrochloric acid-ethanol; test: Hydrochloric acid-ethanol-induced gastric mucosa lesion; format: in vivo, rat; conditions: 0.25 and 0.5 μmol/kg i.v. 5 min before 60% ethanol containing 150 mM hydrochloric acid p.o.; amastatin 2.5 μmol/kg; FIG. 4
Experimental: (§1) Preparation of ethanol- and hydrochloric acid-ethanol-induced gastric mucosa lesion was performed according to the method of Robert et al. (Robert, A. et al., Gastroenteral, 77, 433-443, 1979). That is, after the rats were fasted for 18 to 24 hours, 1 mL of 75% ethanol or 60% ethanol containing 150 mM hydrochloric acid was administered orally. Rats were exsanguinated to kill after 60 min and their stomaches were isolated. The isolated stomach was incised along with greater curvature, washed and fixed with 10% formaldehyde, and an area of gastric mucosa lesion was measured using Image analyzing software, Mac acpect (Mitani corporation, Chiba prefecture). SLp-NH2 was administered intravenously at 5 minutes before administration of 75% ethanol or 60% ethanol containing 150 mM hydrochloric acid. Amastatin (2.5 μmol/kg) was administered at 1 minute before administration of SLp-NH2.

[4] = test system: gastric mucosa lesion by ethanol; test: Ethanol-induced gastric mucosa lesion; format: in vivo, rat; conditions: 0.25 and 0.5 μmol/kg i.v. 5 min before 75% ethanol p.o.; amastatin 2.5 μmol/kg; FIG. 3
Experimental: as §1

In the case of “Ser-Phe-Leu-Leu-Arg-NH2 (SFLLR-NH2) [SFp-NH2]”, the “agonist activity on PAR-2” value (PAR-2) is listed as “week agonist activity on PAR-2” and the “agonist activity on human PAR-1” value (human PAR-1) is listed as “agonist activity on human PAR-1”.
In the case of “Leu-Ser-Ile-Gly-Arg-Leu-NH2 (LSIGRL-NH2) [LSp-NH2, control peptide for SLp-NH2]”, the “effect on mucin secretion from rat gastric mucosal cells” value (“effect on mucin secretion” for short) ([1]; i.v., dose not given) is given as “did not affect mucin secretion”, the “effect on gastric acid secretion accelerated by carbachol (amount of secreted gastric acid)” value ([2]; 5 μmol/kg i.v.) is given as “did not affect” and the “agonist activity on PAR-2” value (PAR-2) is given as “inactive substance”.
For “trans-cinnamoyl-Leu-Ile-Gly-Arg-Leu-ornithine-NH2 [tcLp-NH2]”, the “effect on mucin secretion” value ([1]; i.v., dose not given) is listed as “also accelerated the mucin secretion” and the “agonist activity on PAR-2” value (PAR-2) is listed as “specifically activate PAR-2”.
For “Ser-Leu-Ile-Gly-Arg-Leu-NH2 (SLIGRL-NH2) [SLp-NH2]”, the “effect on gastric mucosa lesion (area) by hydrochloric acid-ethanol” value [3] was “the protective effect was shown”, the “effect on mucin secretion” value ([1]; 0.02 to 5 μmol/kg i.v.) was “accelerated dose-dependently” and the “effect on gastric acid secretion accelerated by carbachol (amount of secreted gastric acid)” value ([2]; 1.25 to 5 μmol/kg i.v.) was “inhibited dose-dependently”. For the same substance, the “effect on gastric mucosa lesion (area) by ethanol” value [4] was “showed the protective effect”.
